The values that follow come from patent publication US7741521B2, “Inhibition of bid-induced cell-death using small organic molecules” (The Burnham Institute, priority 2004, dated 2010).

SMILES strings stand for the structures.

The subject of series [1] is primary hippocampal neurons. Nature of the series: Glutamate-induced cell death in primary hippocampal neurons. It counts as cell-based. The protocol: Primary cultures were obtained from embryonic day 18 rats and cultured in Neurobasal medium (Invitrogen, Karlsruhe, Germany) supplemented with 5 mM HEPES, 1.2 mM glutamine, B27 supplement (Invitrogen, 20 ml/l) and gentamicin (0.1 mg/ml) as described in the art. Glutamate (20 μM) was added in 9-10 day old cultures in EBSS medium (6800 mg/L NaCl, 400 mg/L KCl, 264 mg/L CaCl2×2H2O, 200 mg/L MgCl2×7H2O, 2200 mg/L NaHCO3, 140 mg/L NaH2PO4×H2O, 10 mM glucose, pH 7.2).
Neuronal cell death was quantified after staining the nuclei with the DNA-binding fluorochrome Hoechst 33258 (Molecular Probes) or by the MTT assay. Immunocytochemistry was performed as described in the art, with a polyclonal anti-AIF antibody (sc-9416, Santa Cruz; 1:200) followed by incubation a biotinylated anti-goat IgG antibody (1:200) Vector Laboratories) and Oregon Green-streptavidin (Molecular Probes). […]
To assess whether the compounds of the present invention would also prevent neuronal cell death in primary cultures, a number of cell-based assays were performed. […] Twenty-four hours later, apoptotic nuclei were quantified after staining with Hoechst 33342. In a separate experiment (FIG. 11C), the protective effect of Compound I against glutamate-induced cell death was quantified by the MTT assay. […]

Series [2] has as its system rat embryonic cortical neurons. The experiment in a line: Nuclear translocation of AIF in neurons exposed to glutamate. It counts as cell-based. To be noted: glutamate 20 μM, 8 h. The protocol:
Neuronal cell death was quantified after staining the nuclei with the DNA-binding fluorochrome Hoechst 33258 (Molecular Probes) or by the MTT assay. Immunocytochemistry was performed as described in the art, with a polyclonal anti-AIF antibody (sc-9416, Santa Cruz; 1:200) followed by incubation a biotinylated anti-goat IgG antibody (1:200) Vector Laboratories) and Oregon Green-streptavidin (Molecular Probes). After counterstaining with Hoechst 33342 images were acquired using a confocal laser scanning microscope (Axiovert, Zeiss) with a 60× oil immersion objective (514-nm excitation and 535-nm emission for detection of Oregon Green and 352-nm excitation and 460-nm emission for detection of Hoechst 33342).
Pretreatment with Compound I preserves nuclear morphology (blue fluorescence, Hoechst 33342) and prevents AIF translocation. […] Mean values and SD of 4 dishes per group are presented.

Series [3] has as its system HeLa cells transfected with a plasmid encoding tBID. The experiment in a line: tBID-induced cell death in transfected cells. It counts as cell-based. To be noted: 50 µM; without compound 80±5%. The protocol:
(§1) HEK 293T cells were transfected with 0.5 μg of plasmids encoding either GFP or GFP-tBID in 12 wells plate. After 3 hours transfection, various compounds were added in DMSO to the media. After 20 hours of further incubation, cells were collected and either lysed for caspase assays or fixed and stained with DAPI for determination of apoptosis^50. For caspase activity assays, 293T cells were lysed in lysis buffer (10 mM Hepes, pH 7.4, 142.2 mM KCl, 5 mM MgCl2, 0.5 mM EDTD, 0.5% NP-40) containing a protease inhibitor mixture (Roche Molecular Biochemicals). The lysates were normalized for protein concentration (10 μg), then incubated with 100 μM DEVD-AFC. Enzyme activity was determined by the release of AFC-fluorescence and Vmax was calculated (mean±Std. dev; n=3). For DAPI staining, 293T cells were fixed, washed with PBS, and stained with 0.1 mg/ml DAPI. The percentage of GFP-positive cells with apoptotic morphology (fragment nuclei or condensed chromatin) was determined (mean±Std. dev; n=3).
(§2) Compound II was also evaluated for its ability to inhibit BID-induced apoptosis in cell; for these experiments, HeLa cells were transfected with a plasmid encoding tBID, and effector caspase activity was measured in cell lysates 24 hours later. […] Moreover, tBID-induced cell death, as measured by caspase-3 activity, was reduced from 80±5% to 35±5% by 50 µM of compound II (FIG. 6E). […]

Another series deals with caspase-8 (Homo sapiens, UniProt Q14790). Nature of the series: Caspase-8 mediated BID cleavage (SDS page). To be noted: concentrations used in the cellular assay. It counts as biochemical.
Chain of caspase-8 (Q14790 217-374 limits assumed, species assumed): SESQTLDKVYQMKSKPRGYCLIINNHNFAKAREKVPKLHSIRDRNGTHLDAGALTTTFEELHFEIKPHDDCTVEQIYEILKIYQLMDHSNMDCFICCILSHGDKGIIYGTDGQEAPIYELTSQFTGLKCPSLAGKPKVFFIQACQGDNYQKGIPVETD
Chain of caspase-8 (Q14790 385-479 limits assumed, species assumed): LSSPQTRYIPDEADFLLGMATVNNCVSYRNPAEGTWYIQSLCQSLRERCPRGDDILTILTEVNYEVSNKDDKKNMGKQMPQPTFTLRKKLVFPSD
The next series addresses T1, tBID (Mus musculus, UniProt P70444).
T1 construct: tBID was produced by cleavage of purified BID with caspase-8, as known in the art; made in house; host or cells: E. coli BL21 (BID), then cleaved in vitro with caspase-8
T1 sequence (P70444 60-195 limits assumed): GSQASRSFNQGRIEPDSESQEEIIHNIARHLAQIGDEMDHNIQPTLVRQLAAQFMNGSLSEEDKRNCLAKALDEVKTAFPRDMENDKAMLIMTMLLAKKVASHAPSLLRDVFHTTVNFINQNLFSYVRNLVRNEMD
T1 sequence (P70444 1-59 partner limits assumed): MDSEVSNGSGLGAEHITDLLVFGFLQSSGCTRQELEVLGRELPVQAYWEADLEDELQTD
The experiment in a line: tBID association with isolated mitochondria (immunoblot with BID antibody). It counts as biochemical. To be noted: at 20 μM. The protocol: Compounds II-IX were tested in vitro for their ability to inhibit BID-mediated release of Smac using mitochondria isolated from HeLa cells (FIG. 6A). The first lane represents mitochondria incubated without tBID. All others received 100 ng tBID without or with compounds. Each compound was tested at a concentration of 50 μM. […] To preliminarily investigate the mechanism by which compound II reduces Smac-release from isolated mitochondria, the tBID protein was treated with different concentrations of BI-6C9, after which it was incubated with mitochondria, followed by analysis of the bound and unbound fractions by immunoblotting using BID antibody. The concentration of mitochondria-bound tBID diminished in response to increasing concentrations of compound II.

A further series addresses T2, caspase-3 (Homo sapiens, UniProt P42574).
T2 sequence (P42574 29-175 limits assumed): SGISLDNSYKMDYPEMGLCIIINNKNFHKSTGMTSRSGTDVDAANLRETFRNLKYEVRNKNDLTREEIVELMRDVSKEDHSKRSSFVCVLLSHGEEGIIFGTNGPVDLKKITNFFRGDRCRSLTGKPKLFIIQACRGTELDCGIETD
T2 sequence (P42574 176-277 limits assumed): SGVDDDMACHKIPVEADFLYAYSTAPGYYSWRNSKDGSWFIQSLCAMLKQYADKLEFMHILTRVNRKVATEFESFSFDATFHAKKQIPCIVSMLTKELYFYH
The experiment in a line: Caspase-3 in vitro assay. The note with it: concentrations used in the cellular assay. It counts as biochemical.

Series [4] has as its system HeLa cells transfected with a plasmid encoding tBID. Nature of the series: Effector caspase activity in lysates of tBID-transfected cells. It counts as cell-based. The protocol:
as §1, §2

As for `Nc1ccc(Sc2ccc(NC(=O)CNC(=O)c3ccc(O)cc3O)cc2)cc1` [Compound I, N-((4-(4-aminophenylthio)phenylcarbamoyl)methyl)-2,4-dihydroxybenzamide], the “concentration range of dose-dependent neuroprotective effect” value in series [1] (1 hour pretreatment, glutamate 20 μM, 24 hours, Hoechst 33342 apoptotic nuclei) was in the range of 0.2 to 2 µM. In addition, the “toxicity to primary hippocampal neurons” value in series [1] (at higher concentrations (20 μM)) was “some toxicity”. Also, the “nuclear translocation of AIF” value in series [2] is given as “prevented”.
Take `COc1ccc(S(=O)(=O)NCCCC(=O)Nc2ccc(Sc3ccc(N)cc3)cc2)cc1` [Compound II, N-[4-(4-amino-phenylsulfanyl)-phenyl]-4-(4-methoxy-benzenesulfonylamino)-butyramide]: the tBID-induced cell death in series [3] was 35±5%. Moreover, on caspase-8, the “effect on caspase-8 mediated BID cleavage” value is reported as “does not impair”. Besides, the “inhibition of tBID association with isolated mitochondria” value on tBID is on record as “effective”. Moreover, on caspase-3, the “inhibition of caspase-3” value is “does not inhibit”. Moreover, the “reduction of caspase-3 activity in tBID-transfected cells” value in series [4] (50 µM, 24 hours after transfection) is listed as approximately 4 fold. Moreover, the “caspase activity in tBID-transfected cells” value in series [4] (100 µM) is “totally blocked”.
